Test results reported in patent US20060069132A1, “Azolecarboxamide herbicides” (priority 2004, published 2006).

How the values were obtained:
barnyardgrass [1] = test: Test A pre-/postemergence herbicide test; type: in vivo, Echinochloa crus-galli
Method in brief: (§1)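 Both application timings were run together: directed soil spray over freshly planted seeds in sandy loam, and runoff spray onto 2–10 cm seedlings. Evaluation after ~10 days in greenhouse used a 0–100 visual scale versus untreated controls.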

large crabgrass [2] = test: Test A pre-/postemergence herbicide test; type: in vivo, Digitaria sanguinalis
Method in brief: as §1

giant foxtail [3] = test: Test A pre-/postemergence herbicide test; type: in vivo, Setaria faberi
Method in brief: as §1

morningglory [4] = test: Test A pre-/postemergence herbicide test; type: in vivo, Ipomoea spp.
Method in brief: as §1

redroot pigweed = test: Test A pre-/postemergence herbicide test; type: in vivo, Amaranthus retroflexus
Method in brief: as §1

velvetleaf [5] = test: Test A pre-/postemergence herbicide test; type: in vivo, Abutilon theophrasti
Method in brief: as §1

barnyardgrass [6] = test: Test B pre-/postemergence herbicide test; type: in vivo, Echinochloa crus-galli
Method in brief: (§2)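 Herbicidal effect was judged by eye on a 0–100 scale after plants stood 13 to 15 days in the greenhouse following pre- or postemergence treatment with surfactant-containing formulations.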

Surinam grass = test: Test B pre-/postemergence herbicide test; type: in vivo, Urochloa decumbens
Method in brief: (§3)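 Test chemicals in a non-phytotoxic solvent mixture with surfactant were applied preemergence to seeded species and postemergence to plants 2-18 cm tall (1- to 4-leaf stage); rice and barnyardgrass were also tested in a flooded paddy at the 2-leaf stage. Visual rating versus controls after 13-15 days in greenhouse, scale 0 (no effect) to 100 (complete control).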

cocklebur = test: Test B pre-/postemergence herbicide test; type: in vivo, Xanthium strumarium
Method in brief: as §2

corn = test: Test B pre-/postemergence herbicide test; type: in vivo, Zea mays
Method in brief: as §3

large crabgrass [7] = test: Test B pre-/postemergence herbicide test; type: in vivo, Digitaria sanguinalis
Method in brief: as §3

giant foxtail [8] = test: Test B pre-/postemergence herbicide test; type: in vivo, Setaria faberi
Method in brief: as §3

lambsquarters = test: Test B pre-/postemergence herbicide test; type: in vivo, Chenopodium album
Method in brief: as §3

morningglory [9] = test: Test B pre-/postemergence herbicide test; type: in vivo, Ipomoea coccinea
Method in brief: as §2

pigweed = test: Test B pre-/postemergence herbicide test; type: in vivo, Amaranthus retroflexus
Method in brief: as §3

velvetleaf [10] = test: Test B pre-/postemergence herbicide test; type: in vivo, Abutilon theophrasti
Method in brief: as §3

blackgrass = test: Test B postemergence herbicide test; type: in vivo, Alopecurus myosuroides; conditions: scale 0 (no effect) to 100 (complete control)
Method in brief: (§4)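 Treated at 2-leaf (paddy) or 1–4-leaf, 2–18 cm (postemergence); greenhouse 13–15 d; visual score vs control, 0 none to 100 complete control; dash = not tested.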

wheat = test: Test B postemergence herbicide test; type: in vivo, Triticum aestivum; design: key to Wheat plant response rating: 0 = no effect, 100 = complete control; conditions: scale 0 (no effect) to 100 (complete control)
Method in brief: (§5)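 Formulated test chemicals went onto postemergence plants measuring 2 to 18 cm, at one to four leaves. For the paddy assay, species had reached two leaves. Scoring took place 13–15 days later by eye, relative to untreated plants, using 0 for no effect up to 100 for full control.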

wild oat = test: Test B postemergence herbicide test; type: in vivo, Avena fatua; conditions: scale 0 (no effect) to 100 (complete control)
Method in brief: as §5

rice = test: Test B flooded paddy test; type: in vivo, Oryza sativa; conditions: 1000 g ai/ha, visual rating, scale 0 to 100 (0 no effect, 100 complete control), 13 to 15 days
Method in brief: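 Paddy species grown to the 2-leaf stage under flooding; blackgrass sprayed postemergence at 2–18 cm (1- to 4-leaf stage). Plants kept in a greenhouse for 13 to 15 days, then visually rated against controls on 0 (no effect) to 100 (complete control).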

[11] = system: small flower umbrella sedge; test: Test B flooded paddy test; type: in vivo, Cyperus difformis; conditions: 1000 g ai/ha, visual rating, scale 0 to 100 (0 no effect, 100 complete control), 13 to 15 days
Method in brief: as §4

ducksalad = test: Test B flooded paddy test; type: in vivo, Heteranthera limosa; conditions: 1000 g ai/ha, visual rating, scale 0 to 100 (0 no effect, 100 complete control), 13 to 15 days
Method in brief: as §4

barnyardgrass [12] = test: Test B flooded paddy test; type: in vivo, Echinochloa crus-galli; conditions: 1000 g ai/ha, visual rating, scale 0 to 100 (0 no effect, 100 complete control), 13 to 15 days
Method in brief: as §4

[13] = Postemergence, 500 g ai/ha, 0 to 100 scale, 0 no effect, 100 complete control
[14] = Postemergence, 2000 g ai/ha, 0 to 100 scale, 0 no effect, 100 complete control
[15] = Preemergence, 500 g ai/ha, visual rating, 0 to 100 scale (0 no effect, 100 complete control)
[16] = Preemergence, 2000 g ai/ha, visual rating, 0 to 100 scale (0 no effect, 100 complete control)
[17] = 500 g ai/ha, visual rating 0-100, 0 no effect, 100 complete control, preemergence
[18] = Postemergence, 500 g ai/ha, visual rating after 13 to 15 days, scale 0 (no effect) to 100 (complete control)
[19] = postemergence, 125 g ai/ha, visual rating, scale 0 (no effect) to 100 (complete control)
[20] = preemergence, 125 g ai/ha, 0 to 100 scale, 0 is no effect, 100 is complete control
[21] = Postemergence, 500 g ai/ha, visual rating after 13 to 15 days
[22] = postemergence, 125 g ai/ha, visual rating

CC(=NO)c1cc(NC(=O)c2cc(C(C)(C)C)nn2C)ccc1F [Compound 109]
70: Plant response rating, Cocklebur (cocklebur; [18]) | Plant response rating, Foxtail, Giant (giant foxtail [8]; [20]) | Plant response rating, Pigweed (pigweed; [18]) | Rice plant response rating (rice)
25: Morningglory plant response rating (morningglory [4]; [13]) | Velvetleaf plant response rating (velvetleaf [5]; [13]) | Velvetleaf plant response rating (velvetleaf [5]; [16])
20: Crabgrass, Large plant response rating (large crabgrass [2]; [13]) | Plant response rating, Barnyardgrass (barnyardgrass [6]; [18]) | Plant response rating, Surinam Grass (Surinam grass; [18]) | Plant response rating, Cocklebur (cocklebur; [17]) | Plant response rating, Corn (corn; [18]) | Plant response rating, Foxtail, Giant (giant foxtail [8]; [18]) | Foxtail, Giant plant response rating (giant foxtail [8]; [19]) | Plant response rating, Lambsquarters (lambsquarters; [18]) | Plant response rating, Lambsquarters (lambsquarters; [20]) | Pigweed plant response rating (pigweed; [19]) | Plant response rating, Velvetleaf (velvetleaf [10]; [18]) | Plant response rating, Velvetleaf (velvetleaf [10]; [20]) | Plant response rating, Blackgrass (blackgrass; [21]) | Plant response rating, Wheat (wheat; [21]) | Oat, Wild plant response rating (wild oat; [22])
55: Plant response rating, Crabgrass, Large (large crabgrass [2]; [14]) | Foxtail, Giant plant response rating (giant foxtail [3]; [13])
35: Morningglory plant response rating (morningglory [4]; [15])
100: Pigweed plant response rating (redroot pigweed; [13]) | Plant response rating, Pigweed (redroot pigweed; [14]) | Pigweed plant response rating (redroot pigweed; [16]) | Plant response rating, Barnyardgrass (barnyardgrass [6]; [17]) | Plant response rating, Crabgrass, Large (large crabgrass [7]; [17]) | Plant response rating, Foxtail, Giant (giant foxtail [8]; [17]) | Plant response rating, Morningglory (morningglory [9]; [17]) | Plant response rating, Pigweed (pigweed; [17])
40: Plant response rating, Morningglory (morningglory [4]; [14])
80: Crabgrass, Large plant response rating (large crabgrass [2]; [15]) | Foxtail, Giant plant response rating (giant foxtail [3]; [15]) | Plant response rating, Barnyardgrass (barnyardgrass [6]; [20]) | Plant response rating, Surinam Grass (Surinam grass; [17]) | Plant response rating, Crabgrass, Large (large crabgrass [7]; [20]) | Barnyardgrass plant response rating (barnyardgrass [12])
45: Morningglory plant response rating (morningglory [4]; [16]) | Plant response rating, Velvetleaf (velvetleaf [5]; [14])
10: Barnyardgrass plant response rating (barnyardgrass [6]; [19]) | Surinam Grass plant response rating (Surinam grass; [19]) | Plant response rating, Corn (corn; [17]) | Corn plant response rating (corn; [19]) | Plant response rating, Crabgrass, Large (large crabgrass [7]; [18]) | Crabgrass, Large plant response rating (large crabgrass [7]; [19]) | Lambsquarters plant response rating (lambsquarters; [19]) | Plant response rating, Morningglory (morningglory [9]; [18]) | Plant response rating, Morningglory (morningglory [9]; [20]) | Velvetleaf plant response rating (velvetleaf [10]; [19]) | Wheat plant response rating (wheat; [22])
95: Crabgrass, Large plant response rating (large crabgrass [2]; [16])
0: Plant response rating, Cocklebur (cocklebur; [20]) | Plant response rating, Corn (corn; [20]) | Morningglory plant response rating (morningglory [9]; [19]) | Blackgrass plant response rating (blackgrass; [22])
15: Velvetleaf plant response rating (velvetleaf [5]; [15])
85: Barnyardgrass plant response rating (barnyardgrass [1]; [15])
60: Plant response rating, Surinam Grass (Surinam grass; [20]) | Plant response rating, Velvetleaf (velvetleaf [10]; [17]) | Sedge, Umbrella plant response rating [11]
75: Barnyardgrass plant response rating (barnyardgrass [1]; [13]) | Pigweed plant response rating (redroot pigweed; [15])
30: Cocklebur plant response rating (cocklebur; [19]) | Plant response rating, Pigweed (pigweed; [20]) | Plant response rating, Oat, Wild (wild oat; [21])
90: Plant response rating, Barnyardgrass (barnyardgrass [1]; [14]) | Barnyardgrass plant response rating (barnyardgrass [1]; [16]) | Plant response rating, Foxtail, Giant (giant foxtail [3]; [14]) | Foxtail, Giant plant response rating (giant foxtail [3]; [16]) | Plant response rating, Lambsquarters (lambsquarters; [17]) | Ducksalad plant response rating (ducksalad)
